Test [1] concerns the target T1, HPK1 kinase (Homo sapiens, UniProt Q92918). Briefly: Lantha screen assay, inhibitory effect on HPK1 kinase. The format is biochemical. The note with it: initial compound concentration 1 µM. The protocol: The Lantha screen assay is used to evaluate the inhibitory effect of the compounds on HPK1 kinase. • a) Kinase buffer: 50 mM HEPES (pH 7.5), 10 mM MgCl2, 4 mM DTT, 0.01% Tween-20, 0.01% BSA. • b) Compound Preparation: The compound is diluted with DMSO, and the initial detection concentration of the compound is 1 µM and is diluted to the corresponding concentration. • c) Kinase response and termination: A kinase solution is prepared by adding kinase buffer, the kinase solution and the compound are added to the test plate to be incubated at room temperature for 10 minutes. Fluorescein-PKC and ATP are added to the kinase buffer to form a substrate solution, and 5 µl of the substrate solution is added to the test plate to start the reaction to be incubated at room temperature for 90 minutes; then, 10 µl of a mixture of antibody and EDTA is added to terminate the reaction to be incubated at room temperature for 60 minutes. • d) The date is read by Envision instrument to plot a curve with the Log concentration of the inhibitor as the X-axis and the inhibition rate as the Y-axis, and then the formula Y=Bottom + (Top-Bottom)/(1+(IC50/X)^HillSlope) is used to obtain IC50. Table 1 Inhibitory activity the compounds of the invention on HPK1 kinase

Test [2] addresses T1, HPK1 kinase. Briefly: Activity of degrading HPK1 in Jurkat cells (Western blot, 24 h). Also on record: endogenous in cells; host or cells: Jurkat. It counts as cell-based. The note with it: HPK1 protein degradation. The protocol: The adjusted samples are added to 5*loading buffer, boiled at 100°C for 10 minutes, and then the samples are loaded after the temperature is returned to room temperature. • 4) Detection of samples: Electrophoresis is performed using 10% SDS-PAGE with a sample loading volume of 8 µL/well. After the membrane transfer is completed, the samples are blocked with 5% BSA at room temperature for 1 h. After the residual blocking solution is washed away with TBST, HPK1 and GAPDH antibodies are added for incubation overnight at 4°C. Washing is performed 3 more times with TBST on a shaker, 10 minutes each time. After washing is completed, the secondary antibody is added for incubation at room temperature for 1 hour; then, washing is performed 3 more times with TBST on a shaker, 10 minutes each time; finally, ECL exposure solution is used to develop and image the bands to detect changes in HPK1 protein.
In general terms: A western blot detects proteins with antibodies after separation by electrophoresis.

T1 sequence (Q92918 whole entry): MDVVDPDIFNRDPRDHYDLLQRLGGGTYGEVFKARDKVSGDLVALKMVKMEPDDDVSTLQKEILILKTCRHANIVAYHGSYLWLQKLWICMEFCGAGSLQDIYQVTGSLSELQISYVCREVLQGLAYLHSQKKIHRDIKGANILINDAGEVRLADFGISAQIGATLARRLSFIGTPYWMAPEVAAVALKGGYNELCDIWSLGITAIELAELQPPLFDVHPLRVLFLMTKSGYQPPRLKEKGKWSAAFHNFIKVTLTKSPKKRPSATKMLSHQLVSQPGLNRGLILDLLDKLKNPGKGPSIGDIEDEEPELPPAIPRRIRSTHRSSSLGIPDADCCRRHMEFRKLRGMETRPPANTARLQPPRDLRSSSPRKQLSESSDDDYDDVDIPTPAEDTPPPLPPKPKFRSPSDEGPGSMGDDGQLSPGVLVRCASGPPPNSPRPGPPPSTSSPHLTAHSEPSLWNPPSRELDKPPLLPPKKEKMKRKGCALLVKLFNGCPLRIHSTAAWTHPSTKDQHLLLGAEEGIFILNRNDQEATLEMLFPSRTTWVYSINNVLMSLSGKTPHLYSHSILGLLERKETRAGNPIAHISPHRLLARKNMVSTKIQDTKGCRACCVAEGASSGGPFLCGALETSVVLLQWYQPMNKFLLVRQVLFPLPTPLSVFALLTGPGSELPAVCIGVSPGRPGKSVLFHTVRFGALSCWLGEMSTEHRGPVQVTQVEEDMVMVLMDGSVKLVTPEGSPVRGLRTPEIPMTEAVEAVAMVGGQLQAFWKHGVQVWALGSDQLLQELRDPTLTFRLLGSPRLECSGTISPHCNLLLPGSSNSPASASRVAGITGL

Regarding `Cc1cc(-c2cnc3[nH]cc(-c4cncs4)c3n2)cc(C)c1C1=CCN(CC2CN(c3ccc(N4CCC(=O)NC4=O)c(F)c3)C2)CC1` [compound 153], the IC50 (commonly the concentration that inhibits the measured activity by half) in test [1] was less than 10 nM. For the same compound, the half-maximal degradation concentration (DC50) (in general, the concentration at which degradation of the target reaches its halfway point) in test [2] (class symbols) was less than 10 nM. `Cc1cc(-c2cnc3[nH]cc(-c4ccc(C(=O)N(C)C)cc4)c3n2)cc(C)c1C1=CCN(CC2CN(c3ccc(C4CCC(=O)NC4=O)c(F)c3)C2)CC1` (stereo not shown) [compound 003]: the IC50 in test [1] was less than 10 nM. Besides, the DC50 in test [2] (class symbols) is less than 10 nM. In test [1], `Cc1cc(-c2c[nH]c3ncc(-c4cc(C)c(C5=CCN(CC6CN(c7ccc(C(=O)NC8CCC(=O)NC8=O)cc7)C6)CC5)c(C)c4)nc23)ccc1C(=O)N(C)C` (stereo not shown) [compound 028] yielded an IC50 of less than 10 nM. Also, in test [2] (class symbols), the DC50 was less than 10 nM.

Take `Cc1cc(-c2cnc3[nH]cc(-c4cnco4)c3n2)cc(C)c1C1=CCN(CC2CN(c3ccc(N4CCC(=O)NC4=O)c(F)c3)C2)CC1` [compound 169]: the IC50 in test [1] was less than 10 nM. In test [2] (class symbols), this compound had a DC50 of less than 10 nM. As for `Cc1nsc(-c2c[nH]c3ncc(-c4cc(C)c(C5=CCN(CC6CN(c7ccc(N8CCC(=O)NC8=O)c(F)c7)C6)CC5)c(C)c4)nc23)n1` [compound 171], in test [1], the IC50 was less than 10 nM. Further, in test [2] (class symbols), the DC50 was less than 10 nM.

In test [2] (class symbols), `Cc1cc(-c2cnc3[nH]cc(-c4ccc(C(=O)N(C)C)cc4)c3n2)cc(C)c1C1=CCN(CC2CN(c3cc(F)c(N4CCC(=O)NC4=O)c(F)c3)C2)CC1` [compound 141] yielded a DC50 of less than 10 nM. As to `CCc1nc(C)c(-c2c[nH]c3ncc(-c4cc(C)c(C5=CCN(CC6CN(c7ccc(N8CCC(=O)NC8=O)c(F)c7)C6)CC5)c(C)c4)nc23)s1` [compound 152], the concentration for half-maximal inhibition (IC50) in test [1] is less than 10 nM. Further, the 50% degradation concentration (DC50) in test [2] (class symbols) is less than 10 nM.

As to `Cc1ccn2c(-c3c[nH]c4ncc(-c5cc(C)c(C6=CCN(CC7CN(c8ccc(N9CCC(=O)NC9=O)c(F)c8)C7)CC6)c(C)c5)nc34)cnc2c1` [compound 168], in test [1], the half-inhibitory concentration (IC50) is less than 10 nM. This compound also displayed a DC50 in test [2] (class symbols) of less than 10 nM. In turn, `Cc1cc(-c2cnc3[nH]cc(-c4c(C)noc4C)c3n2)cc(C)c1C1=CCN(CC2CN(c3ccc(N4CCC(=O)NC4=O)c(F)c3)C2)CC1` [compound 155] registered an IC50 in test [1] of less than 10 nM. For the same compound, the DC50 in test [2] (class symbols) is less than 10 nM. In test [1], `Cc1cc(N2CC(CN3CC=C(c4c(C)cc(-c5cnc6[nH]cc(-c7cnc8c(c7)N(C)CCO8)c6n5)cc4C)CC3)C2)ccc1N1CCC(=O)NC1=O` [compound 132] gave an IC50 of less than 10 nM. This compound registered a 50% degradation concentration (DC50) in test [2] (class symbols) of less than 10 nM.

`Cc1cc(-c2cnc3[nH]cc(-c4cn(CC(F)(F)F)nn4)c3n2)cc(C)c1C1=CCN(CC2CN(c3ccc(N4CCC(=O)NC4=O)c(F)c3)C2)CC1` [compound 148] gave an IC50 in test [1] of less than 10 nM. The compound also registered a DC50 in test [2] (class symbols) of less than 10 nM. Take `Cc1cc(-c2cnc3[nH]cc(-c4ccc(C(=O)N(C)C)cc4)c3n2)cc(C)c1C1=CCN(C2CC3(C2)CN(c2ccc(N4CCC(=O)NC4=O)c(F)c2)C3)CC1` [compound 119]: the IC50 in test [1] is less than 10 nM. For the same compound, the DC50 in test [2] (class symbols) was less than 10 nM. On to `Cc1cc(-c2cnc3[nH]cc(-c4ccc(C(=O)N(C)C)cc4)c3n2)cc(C)c1C1=CCN(CC2CN(c3ccc(N4CCC(=O)NC4=O)cc3)C2)CC1` [compound 008], for which the IC50 in test [1] is less than 10 nM. Besides, in test [2] (class symbols), the DC50 is less than 10 nM. `Cc1cc(N2CC(CN3CC=C(c4c(C)cc(-c5cnc6[nH]cc(-c7ccc(C(=O)N(C)C)cc7)c6c5)cc4C)CC3)C2)ccc1N1CCC(=O)NC1=O` [compound 013] gave a half-inhibitory concentration (IC50) in test [1] of less than 10 nM. The same compound displayed a half-maximal degradation concentration (DC50) in test [2] (class symbols) of less than 10 nM. Consider `Cc1cc(N2CC(CN3CC=C(c4ccc(-c5cnc6[nH]cc(-c7ccc(C(=O)N(C)C)cc7)c6n5)cc4CN(C)C)CC3)C2)ccc1N1CCC(=O)NC1=O` [compound 139], for which the IC50 in test [1] was less than 10 nM. In addition, in test [2] (class symbols), the DC50 was less than 10 nM. For the compound `Cc1cc(-c2cnc3[nH]cc(-c4csc(CO)c4)c3n2)cc(C)c1C1=CCN(CC2CN(c3ccc(N4CCC(=O)NC4=O)c(F)c3)C2)CC1` [compound 151], the IC50 in test [1] was less than 10 nM. In addition, the DC50 in test [2] (class symbols) was less than 10 nM. For the compound `Cc1cc(-c2cnc3[nH]cc(-c4cc(Cl)sc4Cl)c3n2)cc(C)c1C1=CCN(CC2CN(c3ccc(N4CCC(=O)NC4=O)c(F)c3)C2)CC1` [compound 149], the concentration for half-maximal inhibition (IC50) in test [1] is less than 10 nM. This compound also yielded a half-maximal degradation concentration (DC50) in test [2] (class symbols) of less than 10 nM.

With `CCN1CCC(n2cc(-c3c[nH]c4ncc(-c5cc(C)c(C6=CCN(CC7CN(c8ccc(N9CCC(=O)NC9=O)c(F)c8)C7)CC6)c(C)c5)nc34)cn2)CC1` [compound 108], in test [1], the IC50 was less than 10 nM. This compound also showed a DC50 in test [2] (numeric values) of 22.3 nM. In the case of `Cc1cc(-c2cnc3[nH]cc(-n4ncc5c4CCC5)c3n2)cc(C)c1C1=CCN(CC2CN(c3ccc(N4CCC(=O)NC4=O)c(F)c3)C2)CC1` [compound 164], in test [1], the IC50 is less than 10 nM. Also, the DC50 in test [2] (class symbols) was less than 10 nM. On to `Cc1cc(-c2cnc3[nH]cc(-c4ccc(C(=O)N(C)C)c5ccccc45)c3n2)cc(C)c1C1=CCN(C2CN(c3ncc(C(=O)NC4CCC(=O)NC4=O)o3)C2)CC1` (stereo not shown) [compound 064], for which, in test [1], the IC50 was less than 10 nM. The same measure, in the same setting: to `Cc1ccc(C(=O)N2CC(CN3CC=C(c4c(C)cc(-c5cnc6[nH]cc(-c7cnc8c(c7C)NCCO8)c6n5)cc4C)CC3)C2)cc1N1CCC(=O)NC1=O` [compound 069] belongs less than 10 nM. On the same count and under the same terms, to `Cc1cc(-c2cnc3[nH]cc(-c4ccc(C(=O)N(C)C)cc4)c3n2)cc(C)c1C1=CCN(CC2CN(c3cccc(C4CCC(=O)NC4=O)c3)C2)CC1` (stereo not shown) [compound 025] belongs less than 10 nM; to `Cc1cc(-c2cnc3[nH]cc(-c4ccc(C(=O)N(C)C)cc4)c3n2)cc(C)c1C1=CCN(CC2CN(c3cccc(N4CCC(=O)NC4=O)c3C)C2)CC1` [compound 027], less than 10 nM; to `Cc1cc(NCC2(CN3CC=C(c4c(C)cc(-c5cnc6[nH]cc(-c7ccc(C(=O)N(C)C)cc7)c6n5)cc4C)CC3)CCC2)ccc1N1CCC(=O)NC1=O` [compound 041], less than 10 nM. Still for that read-out and setting: the same measure for `COCC(C)N1CCC(n2cc(-c3c[nH]c4ncc(-c5cc(C)c(C6=CCN(CC7CN(c8ccc(N9CCC(=O)NC9=O)c(C)c8)C7)CC6)c(C)c5)cc34)cn2)CC1` (stereo not shown) [compound 128]: less than 10 nM; for `Cc1cc(-c2cnc3[nH]cc(-c4ccc(C(=O)N(C)C)cc4)c3n2)cc(C)c1C1=CCN(C(=O)C2CN(c3ccc(C4CCC(=O)NC4=O)cc3)C2)CC1` (stereo not shown) [compound 060]: less than 10 nM.

The compound `Cc1cc(-c2cnc(N)c(OCc3ccc(C(=O)N(C)C)cc3)n2)cc(C)c1C1=CCN(CC2CN(c3ccc(C(=O)NC4CCC(=O)NC4=O)cc3)C2)CC1` (stereo not shown) [compound 094] returned a half-inhibitory concentration (IC50) in test [1] of less than 10 nM.

In the case of `Cc1ccc(C(=O)N2CC(N3CC=C(c4c(C)cc(-c5cnc6[nH]cc(-c7ccc8c(c7)CCN(C)C8=O)c6n5)cc4C)CC3)C2)cc1N1CCC(=O)NC1=O` [compound 072], the half-maximal inhibitory concentration (IC50) in test [1] is less than 10 nM. On the same count and under the same terms, to `Cc1cc(-c2cnc3[nH]cc(-c4ccc(C(=O)N5CC6(COC6)C5)cc4)c3n2)cc(C)c1C1=CCN(CC2CN(c3ccc(C(=O)NC4CCC(=O)NC4=O)cc3)C2)CC1` (stereo not shown) [compound 075] belongs less than 10 nM; to `Cc1cc(-c2cnc3[nH]cc(-c4ccc(C(=O)N(C)C)cc4)c3n2)cc(C)c1C1=CCN(CC2CN(c3ccc(C(=O)N[C@H]4CCC(=O)NC4=O)c(F)c3)C2)CC1` [compound 071], less than 10 nM. For the compound `Cc1cc(-c2cnc3[nH]cc(-c4ccc(C(=O)N(C)C)cc4)c3n2)cc(C)c1C1=CCN(CC2CN(c3ccc(C(=O)NC4CCC(=O)NC4=O)c(F)c3)C2)CC1` (stereo not shown) [compound 100], the concentration for half-maximal inhibition (IC50) in test [1] was less than 10 nM.

The compound `Cc1cc(N2CC(CN3CC=C(c4c(C)cc(-c5cnc6[nH]cc(-c7ccc(N8CCOCC8)nc7)c6c5)cc4C)CC3)C2)ccc1N1CCC(=O)NC1=O` [compound 103] displayed an IC50 in test [1] of less than 10 nM.

On to `CNc1cc(-c2cnc3[nH]cc(-c4ccc(C(=O)N(C)C)cc4)c3n2)ccc1C1=CCN(CC2CN(c3ccc(N4CCC(=O)NC4=O)c(C)c3)C2)CC1` [compound 131], for which the concentration for half-maximal inhibition (IC50) in test [1] was less than 10 nM.

For `Cc1cc(-c2cnc(N)c(Oc3cnn(C4CCN(C)CC4)c3)n2)cc(C)c1C1=CCN(CC2CN(c3ccc(C(=O)NC4CCC(=O)NC4=O)cc3)C2)CC1` (stereo not shown) [compound 095], in test [1], the IC50 is less than 10 nM. The same measure, in the same setting: to `Cc1cc(-c2cnc3[nH]cc(-c4ccc(C(=O)N(C)C)cc4)c3n2)cc(C)c1C1=CCN(C2CC3(CCN(c4ccc(C5CCC(=O)NC5=O)c(F)c4)C3)C2)CC1` (stereo not shown) [compound 045] belongs less than 10 nM; to `Cc1cc(-c2c[nH]c3ncc(-c4cc(C)c(C5=CCN(CC6CN(c7ccc(C(=O)NC8CCC(=O)NC8=O)cc7)C6)CC5)c(C)c4)nc23)ccc1C(=O)N1CC2(COC2)C1` (stereo not shown) [compound 050], less than 10 nM; to `Cc1cc(-c2cnc3[nH]nc(-c4ccc(C(=O)N(C)C)cc4)c3c2)cc(C)c1C1=CCN(CC2CN(c3ncc(C(=O)NC4CCC(=O)NC4=O)o3)C2)CC1` (stereo not shown) [compound 077], less than 10 nM.

Source of the values: EP4813992A1, “POLYARYL DERIVATIVE AND USE THEREOF” (Hangzhou HealZen Therapeutics Co., Ltd., priority 2023, dated 2025).
